Results as given in PubChem BioAssay AID2202555 (NIEHS Division of Translational Toxicology (DTT)).
Records with an inconclusive call do not appear. Active and inactive are the calls of the source. No rule for the calls is given here.

System: rat and mouse 2-year carcinogenicity bioassay, tumor evidence
Experiment: Consolidated carcinogenicity assay summary data
Source text: Cancer Evaluation Criteria
The National Toxicology Program describes the results of individual experiments on a chemical agent and notes the strength of the evidence for conclusions regarding each study. […] Other organizations, such as the International Agency for Research on Cancer, assign a strength of evidence for conclusions based on an examination of all available evidence, including animal studies such as those conducted by the NTP, epidemiologic studies, and estimates of exposure. Thus, the actual determination of risk to humans from chemicals found to be carcinogenic in laboratory animals requires a wider analysis that extends beyond the purview of these studies.
Five categories of evidence of carcinogenic activity are used in the Technical Report series to summarize the strength of evidence observed in each experiment: two categories for positive results (clear evidence and some evidence); one category for uncertain findings (equivocal evidence); one category for no observable effects (no evidence); and one category for experiments that cannot be evaluated because of major flaws (inadequate study). These categories of interpretative conclusions were first adopted in June 1983 and then revised on March 1986 for use in the Technical Report series to incorporate more specifically the concept of actual weight of evidence of carcinogenic activity. For each separate experiment (male rats, female rats, male mice, female mice), one of the following five categories is selected to describe the findings. These categories refer to the strength of the experimental evidence and not to potency or mechanism.
For studies showing multiple chemical-related neoplastic effects that if considered individually would be assigned to different levels of evidence categories, the following convention has been adopted to convey completely the study results. In a study with clear evidence of carcinogenic activity at some tissue sites, other responses that alone might be deemed some evidence are indicated as "were also related" to chemical exposure. In studies with clear or some evidence of carcinogenic activity, other responses that alone might be termed equivocal evidence are indicated as "may have been" related to chemical exposure.
When a conclusion statement for a particular experiment is selected, consideration must be given to key factors that would extend the actual boundary of an individual category of evidence. Such consideration should allow for incorporation of scientific experience and current understanding of long-term carcinogenesis studies in laboratory animals, especially for those evaluations that may be on the borderline between two adjacent levels. These considerations should include:
- adequacy of the experimental design and conduct;
- occurrence of common versus uncommon neoplasia;
- progression (or lack thereof) from benign to malignant neoplasia as well as from preneoplastic to neoplastic lesions;
- some benign neoplasms have the capacity to regress but others (of the same morphologic type) progress. At present, it is impossible to identify the difference. Therefore, where progression is known to be a possibility, the most prudent course is to assume that benign neoplasms of those types have the potential to become malignant;
- combining benign and malignant tumor incidences known or thought to represent stages of progression in the same organ or tissue;
- latency in tumor induction;
- multiplicity in site -specific neoplasia;
- supporting information from proliferative lesions (hyperplasia) in the same site of neoplasia or in other experiments (same lesion in another sex or species);
- presence or absence of dose relationships;
- statistical significance of the observed tumor increase;
- concurrent control tumor incidence as well as the historical control rate and variability for a specific neoplasm;
- survival-adjusted analyses and false positive or false negative concerns;
- structure-activity correlations; and
[…]

[1] = Route (rodents): Interperitoneal
[2] = Route (rodents): Inhalation, Second Route: Gavage
[3] = Route (rodents): Gavage, Second Route: Topical

O=C1c2ccccc2C(=O)c2ccccc21
carcinogen call (Route (rodents): Dosed feed): active; some evidence

COc1cc2c(c3c1c(=O)c1ccccc1n3C)C=CC(C)(C)O2
carcinogen call [1]: active; clear evidence

Nc1ccc(Cl)c(N)c1
carcinogen call (Route (rodents): Dosed feed): active; clear evidence

c1cc(OCC2CO2)cc(OCC2CO2)c1 (stereo unspecified)
carcinogen call (Route (rodents): Gavage): active; clear evidence

CN(C)c1ccc(Cc2ccc(N(C)C)cc2)cc1
carcinogen call (Route (rodents): Dosed feed): active; clear evidence

Cc1ccc(S(=O)(=O)Oc2ccc(N=Nc3ccc(-c4ccc(N=Nc5c(O)ccc6cc(S(=O)(=O)O)cc(S(=O)(=O)O)c56)c(C)c4)cc3C)cc2)cc1
carcinogen call (Route (rodents): Dosed water): active; clear evidence

O.O.O.O.O.O.O.O=S(=O)([O-])[O-].[Co+2]
carcinogen call (Route (rodents): Inhalation): active; some evidence

CC(C)(c1cc(Br)c(O)c(Br)c1)c1cc(Br)c(O)c(Br)c1
carcinogen call (Route (rodents): Gavage): active; equivocal evidence

Clc1ccc(N=Nc2ccc(Cl)c(Cl)c2)cc1Cl
carcinogen call (Route (rodents): Gavage): active; clear evidence

[O-][Cl+2]([O-])O
carcinogen call (Route (rodents): Dosed water): active; some evidence

BrCCBr
carcinogen call [2]: active; clear evidence

ClC(Cl)=C(c1ccc(Cl)cc1)c1ccc(Cl)cc1
carcinogen call (Route (rodents): Dosed feed): active; no evidence

S=C1NCCN1
carcinogen call (Route (rodents): Dosed feed): active; clear evidence

CCn1c2ccccc2c2cc(N)ccc21
carcinogen call (Route (rodents): Dosed feed): active; clear evidence

COc1cc(-c2ccc(N)c(OC)c2)ccc1N
carcinogen call (Route (rodents): Dosed water): active; clear evidence

O=C(O)C(Cl)(Cl)Br
carcinogen call (Route (rodents): Dosed water): active; clear evidence

Nc1ccc(Cl)cc1
carcinogen call (Route (rodents): Gavage): active; clear evidence

Nc1ccc(Sc2ccc(N)cc2)cc1
carcinogen call (Route (rodents): Dosed feed): active; clear evidence

ClCCCl
carcinogen call (Route (rodents): Gavage): active; clear evidence

O=NN(c1ccccc1)c1ccccc1
carcinogen call (Route (rodents): Dosed feed): active; clear evidence

c1ccc(N=Nc2ccccc2)cc1
carcinogen call (Route (rodents): Dosed feed): active; clear evidence

C=C(Cl)CSC(=S)N(CC)CC
carcinogen call (Route (rodents): Dosed feed): active; clear evidence

Cc1ccccc1N
carcinogen call (Route (rodents): Dosed feed): active; clear evidence

O=[N+]([O-])c1ccc(Nc2ccc(Nc3ccccc3)c(S(=O)(=O)O)c2)c([N+](=O)[O-])c1
carcinogen call (Route (rodents): Gavage): active; no evidence

OCCN(CCO)CCO
carcinogen call (Route (rodents): Topical): active; equivocal evidence

COc1ccc([N+](=O)[O-])cc1N
carcinogen call (Route (rodents): Dosed feed): active; clear evidence

O=c1c(O)c(-c2ccc(O)c(O)c2)oc2cc(O)cc(O)c12
carcinogen call (Route (rodents): Dosed feed): active; some evidence

O=C1CCc2ccccc2O1
carcinogen call (Route (rodents): Gavage): active; some evidence

CN(C)c1ccc(C(c2ccccc2)c2ccc(N(C)C)cc2)cc1
carcinogen call (Route (rodents): Dosed feed): active; equivocal evidence

CN(C)c1ccccc1
carcinogen call (Route (rodents): Gavage): active; some evidence

NCCCCCCCCCCC(=O)O
carcinogen call (Route (rodents): Dosed feed): active; clear evidence

Nc1ccc(Cc2ccc(N)cc2)cc1
carcinogen call (Route (rodents): Dosed water): active; clear evidence

CC(COc1ccccc1)N(CCCl)Cc1ccccc1 (stereo unspecified)
carcinogen call [1]: active; clear evidence

O=P(OCCCl)(OCCCl)OCCCl
carcinogen call (Route (rodents): Gavage): active; clear evidence

ClC(Br)Br
carcinogen call (Route (rodents): Gavage): active; no evidence

CCCCC(CC)COP(=O)(OCC(CC)CCCC)OCC(CC)CCCC (stereo unspecified)
carcinogen call (Route (rodents): Gavage): active; equivocal evidence

COP(=O)(OC)O/C(=C\Cl)c1cc(Cl)c(Cl)cc1Cl
carcinogen call (Route (rodents): Dosed feed): active; no evidence

C=C(C)[C@H]1CC=C(C)CC1
carcinogen call (Route (rodents): Gavage): active; clear evidence

CCCCCCCCS(=O)C(C)Cc1ccc2c(c1)OCO2 (stereo unspecified)
carcinogen call (Route (rodents): Dosed feed): active; no evidence

CC(CCl)OP(=O)(OC(C)CCl)OC(C)CCl (stereo unspecified)
carcinogen call (Route (rodents): Dosed feed): active; some evidence

CC(=O)Nc1ccc(N=Nc2cc(C)ccc2O)cc1
carcinogen call (Route (rodents): Dosed feed): active; clear evidence

CC(C)CON=O
carcinogen call (Route (rodents): Inhalation): active; clear evidence

Nc1ccc2c(c1)C(=O)c1ccccc1C2=O
carcinogen call (Route (rodents): Dosed feed): active; clear evidence

OCC1CO1 (stereo unspecified)
carcinogen call (Route (rodents): Gavage): active; clear evidence

ClC1=C(Cl)C2(Cl)C3C(Cl)C=CC3C1(Cl)C2(Cl)Cl (stereo unspecified)
carcinogen call (Route (rodents): Dosed feed): active; no evidence

[O-]/[N+](=N\O)c1ccccc1
carcinogen call (Route (rodents): Dosed feed): active; clear evidence

Nc1ccc(N=Nc2ccc(-c3ccc(N=Nc4c(S(=O)(=O)O)cc5cc(S(=O)(=O)O)c(N=Nc6ccccc6)c(O)c5c4N)cc3)cc2)c(N)c1
carcinogen call (Route (rodents): Dosed feed): active; clear evidence

FC(F)=C(F)F
carcinogen call (Route (rodents): Inhalation): active; clear evidence

C1CC2OC2CC1C1CO1 (stereo unspecified)
carcinogen call (Route (rodents): Topical): active; clear evidence

N#Cc1c(Cl)c(Cl)c(Cl)c(C#N)c1Cl
carcinogen call (Route (rodents): Dosed feed): active; clear evidence

CCOC(=O)C(O)(c1ccc(Cl)cc1)c1ccc(Cl)cc1
carcinogen call (Route (rodents): Dosed feed): active; equivocal evidence

CCCCC(CC)COC(=O)CCCCC(=O)OCC(CC)CCCC (stereo unspecified)
carcinogen call (Route (rodents): Dosed feed): active; no evidence

NC(=O)C1CO1 (stereo unspecified)
carcinogen call (Route (rodents): Dosed water): active; clear evidence

C=CC(=C)CCC=C(C)C
carcinogen call (Route (rodents): Gavage): active; clear evidence

CCCBr
carcinogen call (Route (rodents): Inhalation): active; some evidence

COC(N)=O
carcinogen call (Route (rodents): Gavage): active; clear evidence

C[C@]12CC[C@@H]3c4ccc(OC(=O)Cc5ccc(N(CCCl)CCCl)cc5)cc4CC[C@H]3[C@@H]1CC[C@@H]2OC(=O)Cc1ccc(N(CCCl)CCCl)cc1
carcinogen call (Route (rodents): Gavage): active; no evidence

COc1c2occc2cc2ccc(=O)oc12
carcinogen call (Route (rodents): Gavage): active; clear evidence

O=C1OC(c2ccc(O)cc2)(c2ccc(O)cc2)c2ccccc21
carcinogen call (Route (rodents): Dosed feed): active; clear evidence

c1ccc(NNc2ccccc2)cc1
carcinogen call (Route (rodents): Dosed feed): active; clear evidence

ClC(Cl)=C(Cl)Cl
carcinogen call (Route (rodents): Inhalation): active; clear evidence

Nc1cc(S(=O)(=O)[O-])cc2cc(S(=O)(=O)[O-])c(N=Nc3ccc(-c4ccc(N=Nc5c(S(=O)(=O)[O-])cc6cc(S(=O)(=O)[O-])cc(N)c6c5[O-])c([O-])c4)cc3[O-])c([O-])c12.[Cu+2].[Cu+2].[Na+].[Na+].[Na+].[Na+]
carcinogen call (Route (rodents): Dosed feed): active; some evidence

BrC(Br)Br
carcinogen call (Route (rodents): Gavage): active; some evidence

C=C(Cl)Cl
carcinogen call [2]: active; clear evidence

[O]=[Cr](=[O])([OH])[O][Cr](=[O])(=[O])[OH]
carcinogen call (Route (rodents): Dosed water): active; clear evidence

ClCC(Cl)CCl
carcinogen call (Route (rodents): Gavage): active; clear evidence

CC1C(=O)C[C@]2(C(C)C)C[C@H]12 (stereo partly specified)
carcinogen call (Route (rodents): Gavage): active; some evidence

S=c1[nH]c2ccccc2s1
carcinogen call (Route (rodents): Gavage): active; some evidence

CC=Cc1ccc(O)c(OC)c1
carcinogen call (Route (rodents): Gavage): active; equivocal evidence

OCCNCCO
carcinogen call (Route (rodents): Topical): active; no evidence

Nc1ccc(Oc2ccc(N)cc2)cc1
carcinogen call (Route (rodents): Dosed feed): active; clear evidence

Clc1cc2c(c(Cl)c1Cl)Oc1cc(Cl)c(Cl)c(Cl)c1O2
carcinogen call [3]: active; equivocal evidence

[Co]
carcinogen call (Route (rodents): Inhalation): active; clear evidence

Nc1ccccc1C(=O)OCC=Cc1ccccc1
carcinogen call (Route (rodents): Dosed feed): active; clear evidence

N=C1C=CC(=C(c2ccc(N)cc2)c2ccc(N)cc2)C=C1
carcinogen call (Route (rodents): Dosed feed): active; clear evidence

OCC(Br)CBr (stereo unspecified)
carcinogen call (Route (rodents): Topical): active; clear evidence

Nc1c(Br)cc(Br)c2c1C(=O)c1ccccc1C2=O
carcinogen call (Route (rodents): Dosed feed): active; clear evidence

CC(=O)OCc1ccccc1
carcinogen call (Route (rodents): Gavage, Second Route: Dosed Feed): active; equivocal evidence

O=C(O)C(Cl)Br (stereo unspecified)
carcinogen call (Route (rodents): Dosed water): active; clear evidence

Cc1ncc[nH]1
carcinogen call (Route (rodents): Dosed feed): active; some evidence

S=[Se]
carcinogen call [3]: active; clear evidence

Nc1ccc(N)c2c1C(=O)c1c(N)ccc(N)c1C2=O
carcinogen call (Route (rodents): Dosed feed): active; clear evidence

Clc1ccc(Cl)cc1
carcinogen call (Route (rodents): Gavage): active; clear evidence

CC=CC=CC=O
carcinogen call (Route (rodents): Gavage): active; clear evidence

O=[N+]([O-])c1ccc2nc[nH]c2c1
carcinogen call (Route (rodents): Dosed feed): active; no evidence

COc1ccccc1[N+](=O)[O-]
carcinogen call (Route (rodents): Dosed feed): active; clear evidence

O=C1c2ccccc2-c2ccc3c4c(ccc1c24)-c1ccccc1C3=O
carcinogen call (Route (rodents): Dosed feed): active; no evidence

O=c1c(-c2ccc(O)cc2)coc2cc(O)cc(O)c12
carcinogen call (Route (rodents): Dosed feed): active; no evidence

Cc1cnc[nH]1
carcinogen call (Route (rodents): Dosed feed): active; no evidence

Cc1cc(C)c(N)cc1C
carcinogen call (Route (rodents): Dosed feed): active; clear evidence

O=C1CN(N=Cc2ccc([N+](=O)[O-])o2)C(=O)N1
carcinogen call (Route (rodents): Dosed feed): active; some evidence
